Values of other authors, collected in US6773669B1, “Flow electroporation chamber and method” (Maxcyte, Inc., priority 1995, dated 2004).

What was measured:
[1] = experimental animals; DPG or precursors of DPG; transient
[2] = molecular target: T1, hemoglobin (Homo sapiens, UniProt P68871); conditions: higher than DPG; Benesch et al. 1977
[3] = molecular target: T1, hemoglobin; conditions: pH 7.4, 37 degrees C; J. Biol. Chem. 1975

T1 sequence (P68871 2-147 limits assumed): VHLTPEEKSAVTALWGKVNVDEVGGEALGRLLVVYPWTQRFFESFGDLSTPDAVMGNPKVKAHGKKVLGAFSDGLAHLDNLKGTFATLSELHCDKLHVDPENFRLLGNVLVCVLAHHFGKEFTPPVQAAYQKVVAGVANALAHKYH
T1 sequence (P69905 2-142 partner limits assumed): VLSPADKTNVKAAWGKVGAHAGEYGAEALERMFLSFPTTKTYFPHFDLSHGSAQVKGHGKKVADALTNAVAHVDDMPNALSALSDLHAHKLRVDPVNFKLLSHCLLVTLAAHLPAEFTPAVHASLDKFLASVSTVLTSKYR

Row | affinity to hemoglobin relative to DPG [2] [fold] | P50 of hemoglobin [3] [mm Hg] | SMILES | duration of elevation of oxygen deposition [1] [h]
1 |  |  | O=C(O)C(COP(=O)(O)O)OP(=O)(O)O (stereo not drawn) [DPG, 2,3-diphosphoglycerate] | 6 to 12
2 | 1000 | ≤ 96.4 | O=P(O)(O)O[C@H]1[C@H](OP(=O)(O)O)[C@@H](OP(=O)(O)O)[C@H](OP(=O)(O)O)[C@@H](OP(=O)(O)O)[C@H]1OP(=O)(O)O [IHP, inositol hexaphosphate] | 
